Measured values: patent US4188378A, “Anticancer and antiviral activity of 9-β-D-arabinofuranosyl-2-fluoroadenine” (The United States of America as represented by the …, priority 1978, dated 1980)
“Also recorded” adds a separate entry of the source.

Experiments:
[1] = system: Vaccinia Virus; assay type: cell-based
[2] = system: Leukemia L1210; experiment: Therapeutic activity against leukemia L1210 implanted i.p. in mice; assay type: in vivo
Source text: (§1) Inhibition of DNA polymerase is considered to be responsible for the biologic activity of AraA. The levels of F-AraATP attainable in leukemia L1210 cells in mice from the administration of 2-F-AraA are much higher than the level of AraATP atainable in these cells after administration of AraA. As a result of the maintenance of these levels of the inhibitor, F-AraATP, in them, the leukemia cells are effectively destroyed in animals. […] 2-F-AraA was also active against leukemia L1210 when administered by the oral route.
^a 10^5 L1210 ascites cells implanted i.p. on day 0.
^b Treatments reported were selected from a range of dose levels from
lethally toxic to apparently nontoxic.
more than 16% (1/6 treated mice) dying without gross evidence of
progressive leukemia (splenomegaly), except those treated orally, in whic
^c i.p. = intraperitoneal; oral = drug administered directly into
^d % ILS = % increase in life span, compared to untreated control;
excluding 60day survivors.
^e Based on median day of death in dying animals only. Figures in
parentheses based on % survivors.
2-F-AraA was given i.p. or orally on the basis of average mouse body weight. Therapeutic activity based on observed increase in median life span of treated animals over untreated controls and on estimates of the number of viable L1210 cells present at the end of treatment is summarized in Table 2.

[3] = system: P388 leukemia; experiment: Therapeutic activity against P388 leukemia in mice; assay type: in vivo; conditions: for % increase in median life span: days 1,5,9 after implant of 10^6 cells
Protocol: (§2) Relative to activity against leukemia and antiviral activity, the following summation was found: Levels of F-AraATP in acid-soluble extracts prepared from L1210 and P388 leukemia cells in mice treated with 2-F-AraA (80 mg/kg) were determined by HPLC. […] Inhibition of DNA synthesis by 2-F-AraA (80 mg/kg) in L1210 and P388 leukemia cells in vivo was pronounced for 7 hours after treatment. […] 2-F-AraA was effective against P388 leukemia; % increase in median life span of mice treated with 80 and 52 mg/kg (q3hrsx8; days 1,5,9 after implant of 10^6 cells) was 170% and 150%.

[4] = system: adenosine deaminase; experiment: Deamination by adenosine deaminase in vitro and in vivo; assay type: in vitro ADME
Source text: as §1
(§3) It has been noted that the antitumor activity of the parent compound, 9-β-D-arabinofuranosyladenine (AraA), is enhanced by inhibition of adenosine deaminase and inhibition of DNA synthesis in tumor cells by AraA also is enhanced by concurrent inhibition of adenosine deaminase. […] This observation that 2-fluoroadenosine is not such a substrate for adenosine deaminase led to the synthesis of 9-β-D-arabinofuranosyl-2-fluoroadenine (2-F-AraA). […] The intracellular concentration of 2-F-AraATP in L1210 cells was 45, 156 and 220 nanomoles per 10^9 cells three hours after intraperitoneal treatment with 80, 150 and 400 mg/kg of 2-F-AraA.

[5] = system: L1210 cells; experiment: Intracellular 2-F-AraATP levels in L1210 cells of treated mice; assay type: in vivo; conditions: for level of F-AraATP in acid-soluble extracts (HPLC): L1210 cells, 80 mg/kg
Source text: as §3, §2

[6] = system: P388 leukemia cells; experiment: DNA synthesis in P388 leukemia cells in vivo; parameters: species or system mice; conditions: 80 mg/kg, for 7 hours after treatment
Protocol: as §2

[7] = system: P388 leukemia cells; experiment: F-AraATP levels in P388 leukemia cells of treated mice (HPLC); assay type: in vivo; conditions: 80 mg/kg
Protocol: as §2

[8] = system: Rhinovirus Type 1A; experiment: In vitro antiviral activity, Virus Rating; assay type: cell-based; conditions: average VR adjusted for number of Microtiter wells; VR ≤0.5 no significant activity
Source text: (§4) *Virus Rating (VR): A weighted measurement of antiviral activity which
(§5) takes into account the degree of virusspecific cytopathogenic effect
(§6) (cpe)inhibition, toxicity, and virus concentration, as determined by a
(§7) modification of the methods of Ehrlich et al. (Ann. N.Y. Acad. Sci. 140:7
(§8) 1965). In our experience, a VR≥1.0 indicates definite antiviral
(§9) activity; a VR of 0.5-0.9 indicates moderate antiviral activity; and a VR
(§10) ≤0.5 indicates no significant antiviral activity.
(§11) ^+ Average VR adjusted for number of Microtiter wells employed.

[9] = system: Human Cytomegalovirus; experiment: In vitro antiviral activity, Virus Rating; assay type: cell-based; conditions: average VR adjusted for number of Microtiter wells; VR ≤0.5 no significant activity
Source text: as §4, §5, §6, §7, §8, §9, §10, §11

[10] = system: Parainfluenza Virus Type 3; experiment: In vitro antiviral activity, Virus Rating; assay type: cell-based; conditions: average VR adjusted for number of Microtiter wells; VR ≤0.5 no significant activity
Source text: as §4, §5, §6, §7, §8, §9, §10, §11

[11] = system: Herpes Simplex Virus Type 1; experiment: In vitro antiviral activity, Virus Rating; assay type: cell-based
[12] = system: L1210 cells; experiment: DNA synthesis in L1210 cells in vivo; parameters: species or system mice; conditions: 80 mg/kg, for 7 hours after treatment
Protocol: Protein synthesis was less affected and RNA synthesis was not inhibited under the same experimental conditions.
as §2

[13] = average VR adjusted for number of Microtiter wells, VR≥1.0 definite activity
[14] = Expt. 1, 100 mg/kg/dose q3h × 8, days 1,5,9, i.p.
[15] = Expt. 2, 100 mg/kg/dose q6h × 4, days 1,5,9, i.p.
[16] = Expt. 2, 150 mg/kg/dose q3h × 8, days 1,5,9, oral
[17] = Expt. 2, 400 mg/kg/dose q12h × 2, days 1,5,9, i.p.
[18] = second line of the same regimen: 100 mg/kg/dose q3h × 8, days 1,5,9, i.p.

## Nc1nc(F)nc2c1ncn2[C@@H]1O[C@H](CO)[C@@H](O)[C@@H]1O [2-F-AraA, 9-β-D-arabinofuranosyl-2-fluoroadenine]
[1]; [13]
  Virus Rating (VR): 1.3
[1]; grown in H.Ep.-2 cells in culture
  activity against the virus: demonstrated activity
[2]; 100 mg/kg i.p. once every three hours on days 1, 5, 9, 10^5 cells, 4 of 6 animals
  increase in life span of animals dying of leukemia: 123-155%
[2]; 100 mg/kg i.p. once every three hours on days 1, 5, 9, of 6 animals
  animals deemed recovered from the disease: two
[2]; 400 mg/kg twice a day on days 1, 5, 9
  therapeutic result compared with the 100 mg/kg q3h regimen: Comparable results
[2]; 2-F-AraA alone, BDFl mice, 10^5 cells i.p.
  therapeutic activity against L1210 leukemia: reproducible therapeutic activity; also recorded: therapeutically effective
[2]; [14]
  60-Day Survivors: 2/6
  Estimated No. L1210 Cells Surviving Therapy (based on median day of death): 4 × 10^4
  Estimated No. L1210 Cells Surviving Therapy (in parentheses, based on % survivors): 1.1
  Median % ILS: 123%
[2]; Expt. 1, 100 mg/kg/dose q3h × 8, days 1,5,9, i.p., control 8.5
  Median Day of Death (Dying Mice Only), Treated: 19
[2]; [15]
  60-Day Survivors: 0/6
  Estimated No. L1210 Cells Surviving Therapy (based on median day of death): 3 × 10^6
  Median % ILS: 83%
[2]; Expt. 2, 100 mg/kg/dose q6h × 4, days 1,5,9, i.p., control 9
  Median Day of Death (Dying Mice Only), Treated: 16.5
[2]; [16]
  Estimated No. L1210 Cells Surviving Therapy (based on median day of death): 2 × 10^7
  Median % ILS: 66%
[2]; Expt. 2, 150 mg/kg/dose q3h × 8, days 1,5,9, oral, control 9
  Median Day of Death (Dying Mice Only), Treated: 15
[2]; [17]
  60-Day Survivors: 1/6
  Estimated No. L1210 Cells Surviving Therapy (based on median day of death): 2 × 10^3
  Estimated No. L1210 Cells Surviving Therapy (in parentheses, based on % survivors): 1.8
  Median % ILS: 144%
[2]; Expt. 2, 400 mg/kg/dose q12h × 2, days 1,5,9, i.p., control 9
  Median Day of Death (Dying Mice Only), Treated: 22
[2]; i.p. treatments reported in Table 2 (1/6 treated mice)
  treated mice dying without gross evidence of progressive leukemia (splenomegaly): ≤ 16%
[2]; mice treated orally
  toxicity over the dose range tested: no toxic levels
[2]; oral route
  activity against leukemia L1210: some therapeutic activity; also recorded: active
[2]; [18]
  60-Day Survivors: 1/6
  Estimated No. L1210 Cells Surviving Therapy (based on median day of death): 5 × 10^2
  Estimated No. L1210 Cells Surviving Therapy (in parentheses, based on % survivors): 1.8
  Median % ILS: 155%
[2]; second line of the same regimen: 100 mg/kg/dose q3h × 8, days 1,5,9, i.p., control 9
  Median Day of Death (Dying Mice Only), Treated: 23
[3]; 52 mg/kg q3hrsx8
  % increase in median life span: 150%
[3]; 80 mg/kg q3hrsx8
  % increase in median life span: 170%
[3]; mouse, in vivo
  activity against P388 leukemia in mice: effective; also recorded: active
[4]
  deamination by adenosine deaminase: not a substrate for adenosine deaminase; also recorded: not deaminated; also recorded: completely resistant to deamination
[5]; 9 and 18 hours after a single dose of 80 and 150 mg/kg
  2-F-AraATP in L1210 cells: not found
[5]; 18 hours after a dose of 400 mg/kg
  2-F-AraATP in L1210 cells: significant levels were present
[5]; BDFl mice treated with 2-F-AraA alone, versus AraATP from AraA plus adenosine deaminase inhibitor
  intracellular pools of 2-F-AraATP in L1210 cells: comparable
[5]; 1 to 6 hours after treatment
  level of F-AraATP in acid-soluble extracts (HPLC): 30-50 nmoles/gm cells
[5]; 9 hours after treatment
  level of F-AraATP in acid-soluble extracts (HPLC): none was detected
[5]; after administration of 2-F-AraA
  levels of F-AraATP attainable in leukemia L1210 cells in mice, compared with AraATP after AraA: much higher
[6]
  inhibition of DNA synthesis in vivo: pronounced
[7]; 1 to 6 hours after treatment
  level of F-AraATP in acid-soluble extracts (HPLC): 30-50 nmoles/gm cells
[7]; 9 hours after treatment
  level of F-AraATP in acid-soluble extracts (HPLC): none was detected
[8]
  Virus Rating (VR): 0
[9]
  Virus Rating (VR): 0.3
[10]
  Virus Rating (VR): 0
[11]
  activity against the virus: demonstrated activity
[11]; [13]
  Virus Rating (VR): 1.4
[12]
  inhibition of DNA synthesis in vivo: pronounced
